# Source: patent US5925369A, “Bis alkanoyl esters of carnitine having bactericidal, fungicidal and antiprotozoal activity” (priority 1996, dated 1999)
# Tested on: T. mentagrophytes IDI D1049
# Test: Antifungal activity in experimental Tinea pedis in the guinea-pig paw
# Type: in vivo, Hartley guinea-pig
# Conditions: for A (clinical sign score) / D (clinical sign score) / E (clinical sign score): scale 0-3; for sterile samples (%) / sterile samples (n = 30), number over total: 20 days once a day, day +31
# Source text: Twelve male Hartley guinea-pig (C. RIVER), weighing 350-400 gr, have been utilized (3 animals per experimental group).
# One clinical isolate (Tricophyton mentagrophytes IDI D 1049, from Immacolata Dermatological Institute of Rome) was utilized.
# Microaleuriospores were first harvested by scraping from a 7-day fungal culture grown in Potato dextrose agar, and then resuspended in Sabouraud broth with 0.5% Tween 80.
# After washing, the spores were standardized in sterile saline to yield a final concentration of 1.0×10^8 spores/ml.
# Each group included 3 animals, and only the left hind paw was inoculated. For the 2 control groups, 3 animals in total were used, as both hind paws of each animal were inoculated.
# Filter paper discs (12-mm diameter and 0.3-mm thickness) were covered with aluminum foil in the lower part to prevent the inoculum spreading. This filter was then sticked to a 1×3-cm piece of biadesive plaster, which adhered to a gauze wrapped around the paw.
# The filter paper disc was then wetted with 100 μl of the infective suspension, and subsequently fixed to the guinea-pig paw.
# The animal paw was tied up with bandage and plaster, and then left in these conditions for 7 days.
# Seven days after infection, the infected areas were uncovered and the type of lesion was graded according to an arbitrary scale, as follows:
# These "clinical" signs were examined again on days +14, +21, and +31 (day of sacrifice of animals). Three days following the first observation of the type of lesion (day +10), treatments with the differrent formulations were started, and they went on for 20 days (once a day). Two days following the last treatment (day +31), animals were sacrificed and plantar areas of the paws were dissected into 10 parts for each paw.
# These sections were plated onto Mycobiotic agar supplemented with Penicillin G and Streptomicin (100 mcg/ml). Volumes of 50 μl of both antibiotics were then added to the plantar sections to prevent any bacterial growth that might interfere with the growth of T. mentagrophytes in the samples under examination.
# The data obtained were expressed as the number of microbiologically sterile cutaneous sections over the total examined sections.
smiles,measurement,setting,value
"CCCCCCCCCCC(=O)O[C@H](CC(=O)OCc1ccc(COC(=O)C[C@H](C[N+](C)(C)C)OC(=O)CCCCCCCCCC)cc1)C[N+](C)(C)C [ST 1226, bis(undecanoyl L-carnitine chloride)p-xylilene diester]",microbiological recovery,1% ST 1226,80%
same,A (clinical sign score),"1%, 7th day",0
same,D (clinical sign score),"1%, 7th day",0
same,E (clinical sign score),"1%, 7th day",0
same,A (clinical sign score),"1%, 14th day",0
same,D (clinical sign score),"1%, 14th day",0
same,E (clinical sign score),"1%, 14th day",0
same,A (clinical sign score),"1%, 21st day",0
same,D (clinical sign score),"1%, 21st day",0
same,E (clinical sign score),"1%, 21st day",0
same,A (clinical sign score),"1%, 31st day",0
same,D (clinical sign score),"1%, 31st day",0
same,E (clinical sign score),"1%, 31st day",0
same,sterile samples (%),1%,80%
same,"sterile samples (n = 30), number over total",1%,24/30
same,microbiological recovery,1.5% ST 1226,100%
same,A (clinical sign score),"1.5%, 7th day",0
same,D (clinical sign score),"1.5%, 7th day",0
same,E (clinical sign score),"1.5%, 7th day",0
same,A (clinical sign score),"1.5%, 14th day",0
same,D (clinical sign score),"1.5%, 14th day",0
same,E (clinical sign score),"1.5%, 14th day",0
same,A (clinical sign score),"1.5%, 21st day",0
same,D (clinical sign score),"1.5%, 21st day",0
same,E (clinical sign score),"1.5%, 21st day",0
same,A (clinical sign score),"1.5%, 31st day",0
same,D (clinical sign score),"1.5%, 31st day",0
same,E (clinical sign score),"1.5%, 31st day",0
same,sterile samples (%),1.5%,100%
same,"sterile samples (n = 30), number over total",1.5%,20/20
